Source: PubChem BioAssay AID248 (DTP/NCI, 2004)
Toxic doses and inconclusive results are not listed. No stated cut-off is given here; in the data, active means T/C of 150% or more; inactive means T/C below 125%.

Tested on: L1210 leukemia ip in BDF1 mice, survival T/C
Assay: NCI In Vivo Anticancer Drug Screen. Data for tumor model L1210 Leukemia (intraperitoneal) in B6D2F1 (BDF1) mice
Details: higher = longer survival
Procedure, shortened: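 Survival endpoint. Drug-treated group vs vehicle group, expressed as T divided by C. Tumor passaged by transplantation.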

[1] = endpoint: mean survival time, dose: 100.0 mg/kg/injection, schedule: Q01DX001 (ip), vehicle: saline with Tween-80
[2] = endpoint: mean survival time, dose: 200.0 mg/kg/injection, schedule: Q01DX001 (ip), vehicle: saline with Tween-80
[3] = endpoint: mean survival time, dose: 400.0 mg/kg/injection, schedule: Q01DX001 (ip), vehicle: saline with Tween-80
[4] = endpoint: mean survival time, dose: 100.0 mg/kg/injection, schedule: Q01DX009 (ip), vehicle: saline
[5] = endpoint: mean survival time, dose: 200.0 mg/kg/injection, schedule: Q01DX009 (ip), vehicle: saline
[6] = endpoint: mean survival time, dose: 75.0 mg/kg/injection, schedule: Q01DX001 (ip), vehicle: saline
[7] = endpoint: mean survival time, dose: 150.0 mg/kg/injection, schedule: Q01DX001 (ip), vehicle: saline
[8] = endpoint: mean survival time, dose: 300.0 mg/kg/injection, schedule: Q01DX001 (ip), vehicle: saline
[9] = endpoint: mean survival time, dose: 25.0 mg/kg/injection, schedule: Q04DX003 (ip), vehicle: saline with Tween-80
[10] = endpoint: mean survival time, dose: 100.0 mg/kg/injection, schedule: Q04DX002 (ip), vehicle: Klucel (hydroxypropylcellulose) (HPC)
[11] = endpoint: mean survival time, dose: 200.0 mg/kg/injection, schedule: Q04DX002 (ip), vehicle: Klucel (hydroxypropylcellulose) (HPC)
[12] = endpoint: mean survival time, dose: 400.0 mg/kg/injection, schedule: Q04DX002 (ip), vehicle: Klucel (hydroxypropylcellulose) (HPC)
[13] = endpoint: mean survival time, dose: 50.0 mg/kg/injection, schedule: Q01DX001 (ip), vehicle: Klucel (hydroxypropylcellulose) (HPC)
[14] = endpoint: mean survival time, dose: 100.0 mg/kg/injection, schedule: Q01DX001 (ip), vehicle: Klucel (hydroxypropylcellulose) (HPC)
[15] = endpoint: mean survival time, dose: 200.0 mg/kg/injection, schedule: Q01DX001 (ip), vehicle: Klucel (hydroxypropylcellulose) (HPC)
[16] = endpoint: mean survival time, dose: 400.0 mg/kg/injection, schedule: Q01DX001 (ip), vehicle: Klucel (hydroxypropylcellulose) (HPC)
[17] = endpoint: mean survival time, dose: 100.0 mg/kg/injection, schedule: Q01DX009 (ip), vehicle: Klucel (hydroxypropylcellulose) (HPC)
[18] = endpoint: mean survival time, dose: 200.0 mg/kg/injection, schedule: Q01DX009 (ip), vehicle: Klucel (hydroxypropylcellulose) (HPC)

Measured: T/C

CN(C)c1ccc(/C=C/c2cc[n+](C)cc2)cc1
inactive: endpoint: mean survival time, dose: 8.0 mg/kg/injection, schedule: Q04DX003 (ip), vehicle: saline with Tween-80 100 % of control | endpoint: mean survival time, dose: 16.0 mg/kg/injection, schedule: Q04DX003 (ip), vehicle: saline with Tween-80 95 % of control

O=C(NCc1ccccc1)c1ccccc1/C(=N/O)c1ccccc1
inactive: endpoint: mean survival time, dose: 200.0 mg/kg/injection, schedule: Q01DX009 (ip), vehicle: saline with Tween-80 86 % of control

CNC(=O)CCC(NS(=O)(=O)c1ccc(C)cc1)C(=O)O (stereo not drawn)
inactive: [1] 100 % of control | [2] 95 % of control | [3] 97 % of control

CCCCCC1CCCC1
inactive: endpoint: mean survival time, dose: 100.0 mg/kg/injection, schedule: Q04DX002 (ip), vehicle: saline 94 % of control | endpoint: mean survival time, dose: 200.0 mg/kg/injection, schedule: Q04DX002 (ip), vehicle: saline 106 % of control | endpoint: mean survival time, dose: 400.0 mg/kg/injection, schedule: Q04DX002 (ip), vehicle: saline 103 % of control

CCN(CC)CCOC(=O)CSC1C2CC3C(C2)C31 (stereo not drawn)
inactive: endpoint: mean survival time, dose: 50.0 mg/kg/injection, schedule: Q01DX009 (ip), vehicle: saline 94 % of control | [4] 90 % of control | [5] 123 % of control

O=C1NC(=S)SC1N=Nc1ccc(S(=O)(=O)Nc2ncccn2)cc1 (stereo not drawn)
inactive: [6] 104 % of control | [7] 102 % of control | [8] 100 % of control

C(=C\[P+](Cc1ccccc1)(c1ccccc1)c1ccccc1)/c1ccccc1
inactive: endpoint: mean survival time, dose: 12.5 mg/kg/injection, schedule: Q04DX003 (ip), vehicle: saline with Tween-80 100 % of control | [9] 92 % of control

Cc1ccc(N2C(=O)CC(c3ccccc3)C2C(=O)O)cc1 (stereo not drawn)
inactive: [10] 100 % of control | [11] 103 % of control | [12] 103 % of control

Nc1nc(N)c2nnsc2n1
inactive: [1] 101 % of control | [2] 96 % of control | [3] 90 % of control

COC(=O)c1ccc(C(=O)O)cc1
inactive: endpoint: mean survival time, dose: 100.0 mg/kg/injection, schedule: Q04DX003 (ip), vehicle: saline with Tween-80 100 % of control | endpoint: mean survival time, dose: 200.0 mg/kg/injection, schedule: Q04DX003 (ip), vehicle: saline with Tween-80 102 % of control | endpoint: mean survival time, dose: 400.0 mg/kg/injection, schedule: Q04DX003 (ip), vehicle: saline with Tween-80 91 % of control

O=c1[nH]cnc2ncnn12
inactive: endpoint: mean survival time, dose: 100.0 mg/kg/injection, schedule: Q01DX001 (ip), vehicle: alkali diluted with saline 104 % of control | endpoint: mean survival time, dose: 200.0 mg/kg/injection, schedule: Q01DX001 (ip), vehicle: alkali diluted with saline 109 % of control | endpoint: mean survival time, dose: 400.0 mg/kg/injection, schedule: Q01DX001 (ip), vehicle: alkali diluted with saline 104 % of control

Nc1cccc(CSc2nc3nc[nH]c3c(=O)[nH]2)c1
inactive: endpoint: mean survival time, dose: 25.0 mg/kg/injection, schedule: Q01DX001 (ip), vehicle: Klucel (hydroxypropylcellulose) (HPC) 102 % of control | [13] 100 % of control | [14] 102 % of control

CC(=O)Nc1nc(/C=C/C(=O)CCl)c(CCCCc2ccccc2)c(=O)[nH]1
inactive: [13] 93 % of control | [14] 102 % of control | [15] 96 % of control

COc1ccccc1-n1c(O)c(N=Nc2ccc(Br)cc2)c(=O)n(-c2ccc(C)cc2)c1=S
inactive: [14] 109 % of control | [15] 102 % of control | [16] 102 % of control

CCCCS/C=C1\CCC2(C)CCCCC2C1=O (stereo not drawn)
inactive: endpoint: mean survival time, dose: 100.0 mg/kg/injection, schedule: Q04DX002 (ip), vehicle: saline with Tween-80 100 % of control | endpoint: mean survival time, dose: 200.0 mg/kg/injection, schedule: Q04DX002 (ip), vehicle: saline with Tween-80 100 % of control | endpoint: mean survival time, dose: 400.0 mg/kg/injection, schedule: Q04DX002 (ip), vehicle: saline with Tween-80 120 % of control

CSc1ncc(Br)c(N2CC2)n1
inactive: endpoint: mean survival time, dose: 59.0 mg/kg/injection, schedule: Q01DX Z (ip), vehicle: methylcellulose (MC) 89 % of control | endpoint: mean survival time, dose: 88.0 mg/kg/injection, schedule: Q01DX Z (ip), vehicle: methylcellulose (MC) 86 % of control

CCCCOC(=O)c1ccc(OC(=O)Nc2ccc([N+](=O)[O-])cc2OC)cc1
inactive: [13] 93 % of control | endpoint: mean survival time, dose: 50.0 mg/kg/injection, schedule: Q01DX009 (ip), vehicle: Klucel (hydroxypropylcellulose) (HPC) 96 % of control | endpoint: mean survival time, dose: 50.0 mg/kg/injection, schedule: Q01DX009 (ip), vehicle: other 101 % of control | endpoint: mean survival time, dose: 50.0 mg/kg/injection, schedule: Q04DX002 (ip), vehicle: Klucel (hydroxypropylcellulose) (HPC) 97 % of control | endpoint: mean survival time, dose: 50.0 mg/kg/injection, schedule: Q04DX003 (ip), vehicle: other 98 % of control | [14] 93 % of control | [17] 96 % of control | endpoint: mean survival time, dose: 100.0 mg/kg/injection, schedule: Q01DX009 (ip), vehicle: other 105 % of control | [10] 94 % of control | endpoint: mean survival time, dose: 100.0 mg/kg/injection, schedule: Q04DX003 (ip), vehicle: other 109 % of control | [15] 92 % of control | [18] 122 % of control | endpoint: mean survival time, dose: 200.0 mg/kg/injection, schedule: Q01DX009 (ip), vehicle: other 102 % of control | [11] 97 % of control | endpoint: mean survival time, dose: 200.0 mg/kg/injection, schedule: Q04DX003 (ip), vehicle: other 101 % of control | [16] 101 % of control | [12] 100 % of control | endpoint: mean survival time, dose: 400.0 mg/kg/injection, schedule: Q04DX003 (ip), vehicle: other 97 % of control

c1cc(Nc2ccncc2)ccn1
inactive: endpoint: mean survival time, dose: 6.25 mg/kg/injection, schedule: Q01DX009 (ip), vehicle: saline with Tween-80 97 % of control | endpoint: mean survival time, dose: 12.5 mg/kg/injection, schedule: Q01DX009 (ip), vehicle: saline with Tween-80 95 % of control | endpoint: mean survival time, dose: 25.0 mg/kg/injection, schedule: Q01DX009 (ip), vehicle: saline with Tween-80 99 % of control | [9] 97 % of control

O=C1OC(=O)C2CCC12 (stereo not drawn)
inactive: [6] 93 % of control | [4] 91 % of control | endpoint: mean survival time, dose: 100.0 mg/kg/injection, schedule: Q04DX003 (ip), vehicle: saline 98 % of control | [7] 101 % of control | [5] 93 % of control | endpoint: mean survival time, dose: 200.0 mg/kg/injection, schedule: Q04DX003 (ip), vehicle: saline 101 % of control | [8] 112 % of control | endpoint: mean survival time, dose: 400.0 mg/kg/injection, schedule: Q04DX003 (ip), vehicle: saline 98 % of control

O=[N+]([O-])c1cccc(S/N=C/c2ccccc2)c1
inactive: endpoint: mean survival time, dose: 100.0 mg/kg/injection, schedule: Q04DX003 (ip), vehicle: Klucel (hydroxypropylcellulose) (HPC) 100 % of control | endpoint: mean survival time, dose: 200.0 mg/kg/injection, schedule: Q04DX003 (ip), vehicle: Klucel (hydroxypropylcellulose) (HPC) 95 % of control | endpoint: mean survival time, dose: 400.0 mg/kg/injection, schedule: Q04DX003 (ip), vehicle: Klucel (hydroxypropylcellulose) (HPC) 105 % of control

CN=C(NC#N)NCCSCc1nc[nH]c1C
inactive: endpoint: median survival time, dose: 12.0 mg/kg/injection, schedule: Q01DX009 (ip), vehicle: Klucel (hydroxypropylcellulose) (HPC) 100 % of control | endpoint: median survival time, dose: 25.0 mg/kg/injection, schedule: Q01DX009 (ip), vehicle: Klucel (hydroxypropylcellulose) (HPC) 101 % of control | endpoint: median survival time, dose: 50.0 mg/kg/injection, schedule: Q01DX009 (ip), vehicle: Klucel (hydroxypropylcellulose) (HPC) 106 % of control | endpoint: median survival time, dose: 100.0 mg/kg/injection, schedule: Q01DX009 (ip), vehicle: Klucel (hydroxypropylcellulose) (HPC) 106 % of control | endpoint: median survival time, dose: 200.0 mg/kg/injection, schedule: Q01DX009 (ip), vehicle: Klucel (hydroxypropylcellulose) (HPC) 108 % of control | endpoint: median survival time, dose: 400.0 mg/kg/injection, schedule: Q01DX009 (ip), vehicle: Klucel (hydroxypropylcellulose) (HPC) 104 % of control

CC(=O)Nc1nnc(Sc2ccc([N+](=O)[O-])cc2[N+](=O)[O-])s1
inactive: [17] 95 % of control | [18] 95 % of control | endpoint: mean survival time, dose: 400.0 mg/kg/injection, schedule: Q01DX009 (ip), vehicle: Klucel (hydroxypropylcellulose) (HPC) 100 % of control

CNS(=O)(=O)c1ccccc1C(O)(c1ccccc1)c1ccccc1
inactive: endpoint: mean survival time, dose: 100.0 mg/kg/injection, schedule: Q01DX001 (ip), vehicle: saline 94 % of control | endpoint: mean survival time, dose: 200.0 mg/kg/injection, schedule: Q01DX001 (ip), vehicle: saline 100 % of control | endpoint: mean survival time, dose: 400.0 mg/kg/injection, schedule: Q01DX001 (ip), vehicle: saline 111 % of control
